These results are taken from ChEMBL document CHEMBL1201862, “PubChem BioAssay data set” (2004).

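Values below derive from 48-hour exposures of cells grown in 96-well plates, with endpoints linearly interpolated between the two concentrations bracketing the appropriate inhibition level. GI50 = concentration required for 50% inhibition of growth.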 Active and inactive are the calls of the source. Cut-off read from the data, not from the text of the source: active = GI50 up to about 1.1 µM and inactive = higher.

Among the test systems are A549; SR; MDA-MB-231; A498; LOX IMVI; HOP-62; HCC 2998; U-251; SF-539; HL-60; Hs-578T; PC-3; MCF7; SK-MEL-28; UO-31; K562; UACC-62; BT-549; MOLT-4; SK-MEL-2.
Holding throughout (test): NCI tumour cell line growth inhibition, 48 h

Regarding `CN(CC1(CO)CCC1)c1cc(Cl)nc(N)n1`, the GI50 with A549, in the assay on SR, with MDA-MB-231, in the assay with A498, in the assay with LOX IMVI and in the assay on HOP-62 was > 100 µM (inactive) in each case. In addition, the GI50 in the assay on HCC 2998, with U-251, with SF-539, in the assay with HL-60, in the assay with Hs-578T and in the assay on PC-3 was > 100 µM (inactive) each time. The GI50 with MCF7, with SK-MEL-28, in the assay on UO-31, in the assay with K562, in the assay on UACC-62 and in the assay on BT-549 was > 100 µM (inactive) in each case. For the same molecule, the GI50 with MOLT-4 and in the assay on SK-MEL-2 was > 100 µM (inactive) throughout.

`Cc1nc(-c2ccc(/N=C/c3ccc(N(CCOS(C)(=O)=O)CCOS(C)(=O)=O)cc3C)cc2)cs1`: the GI50 in the assay with A549 was 11.3 µM (inactive); with SR, 9.51 µM (inactive); in the assay on MDA-MB-231, 72.8 µM (inactive); with A498, 2.31 µM (inactive); with LOX IMVI it was 19.4 µM (inactive); with HOP-62, 35.1 µM (inactive). The GI50 was 30 µM (inactive) with HCC 2998; 36.9 µM (inactive) with U-251; 3.04 µM (inactive) in the assay on SF-539; 3.94 µM (inactive) with HL-60; 88.3 µM (inactive) in the assay on Hs-578T; 20.9 µM (inactive) with PC-3. Also, the GI50 was 2.44 µM (inactive) in the assay on MCF7; 97.9 µM (inactive) with SK-MEL-28; 18.7 µM (inactive) in the assay on UO-31; 26.5 µM (inactive) with K562; 9.59 µM (inactive) in the assay with UACC-62; 28.2 µM (inactive) in the assay on BT-549. The GI50 in the assay on MOLT-4 was 2.09 µM (inactive); in the assay on SK-MEL-2, > 100 µM (inactive).

Take `c1ccc(CNCCCNCCCCNCCCNCc2ccccc2)cc1`: the GI50 is 14.4 µM (inactive) in the assay on A549; 3.39 µM (inactive) with SR; 6.5 µM (inactive) in the assay with MDA-MB-231; > 10 µM (inactive) in the assay on A498; 3.15 µM (inactive) with LOX IMVI; 4.15 µM (inactive) in the assay with HOP-62. For the same molecule, the GI50 is 5.66 µM (inactive) with HCC 2998; 7.87 µM (inactive) with U-251; 1.76 µM (inactive) in the assay on SF-539; 0.656 µM (active) with HL-60; 1.91 µM (inactive) with Hs-578T; 4.88 µM (inactive) in the assay with PC-3. Further, the GI50 in the assay on MCF7 was 3.21 µM (inactive); in the assay on SK-MEL-28 it was 12.1 µM (inactive); in the assay with UO-31, 12.2 µM (inactive); with K562, 1.67 µM (inactive); with UACC-62 it was 6.59 µM (inactive); with BT-549, 16.7 µM (inactive). In addition, the figures for the GI50 in the assay on MOLT-4 and with SK-MEL-2 were 0.834 µM (active) and 14.7 µM (inactive), respectively.

For `Cc1ccc(Nc2nc3[nH]ccc3c(=O)[nH]2)cc1`, the GI50 is 66.1 µM (inactive) in the assay with A549; > 100 µM (inactive) in the assay on SR; 52.7 µM (inactive) in the assay on MDA-MB-231; 18.1 µM (inactive) in the assay with A498; > 100 µM (inactive) in the assay on LOX IMVI; > 100 µM (inactive) in the assay with HOP-62. The GI50 in the assay on HCC 2998 is 71.6 µM (inactive); in the assay with U-251, > 100 µM (inactive); in the assay on SF-539, > 100 µM (inactive); in the assay with HL-60, 75.5 µM (inactive); in the assay on Hs-578T it was 35.8 µM (inactive); in the assay on PC-3, 37.8 µM (inactive). Besides, the GI50 in the assay on MCF7 was > 100 µM (inactive); in the assay on UO-31 it was 57.3 µM (inactive); with K562, > 100 µM (inactive); in the assay on UACC-62, 93.8 µM (inactive); with BT-549 it was 70.3 µM (inactive); with MOLT-4, 39.7 µM (inactive). Moreover, the GI50 with SK-MEL-2 is > 100 µM (inactive).

Turning to `CN(C)CCNC(=O)C(C)(C)Oc1ccc(C(=O)c2ccc(Cl)cc2)cc1Cl`, the GI50 is 9.18 µM (inactive) in the assay on A549; 6.84 µM (inactive) in the assay with SR; 10.9 µM (inactive) in the assay on MDA-MB-231; 16.1 µM (inactive) in the assay with A498; 7.11 µM (inactive) in the assay with LOX IMVI; 11.5 µM (inactive) in the assay with HOP-62. Also, the GI50 is 5.21 µM (inactive) in the assay on HCC 2998; 7.05 µM (inactive) in the assay on U-251; 9.46 µM (inactive) with SF-539; 5.26 µM (inactive) in the assay on HL-60; 6.14 µM (inactive) with Hs-578T; 11.5 µM (inactive) in the assay on PC-3. The GI50 is 8.34 µM (inactive) in the assay on MCF7; 1.94 µM (inactive) in the assay on SK-MEL-28; 9.59 µM (inactive) in the assay on UO-31; 2.04 µM (inactive) in the assay on UACC-62; 11.5 µM (inactive) in the assay on BT-549; 12 µM (inactive) in the assay with MOLT-4. The GI50 in the assay with SK-MEL-2 is 18 µM (inactive).

For the molecule `OCCCCCNc1nc(O)c2[nH]cnc2n1`, the GI50 with A549 is > 10 µM (inactive); in the assay on SR it was > 100 µM (inactive); with MDA-MB-231, > 100 µM (inactive); with A498, > 100 µM (inactive); with LOX IMVI it was > 100 µM (inactive); in the assay on HOP-62, > 100 µM (inactive). In addition, the GI50 was > 100 µM (inactive) with HCC 2998; > 100 µM (inactive) in the assay with U-251; 8.17 µM (inactive) with SF-539; > 100 µM (inactive) with HL-60; 90.8 µM (inactive) in the assay with Hs-578T; > 100 µM (inactive) with PC-3. In addition, the GI50 in the assay with MCF7 was > 10 µM (inactive); in the assay on UO-31, > 100 µM (inactive); with K562, > 100 µM (inactive); in the assay with UACC-62, > 100 µM (inactive); in the assay on BT-549 it was > 100 µM (inactive); in the assay with MOLT-4 it was > 100 µM (inactive). For the same molecule, the GI50 in the assay on SK-MEL-2 is > 100 µM (inactive).

For the molecule `O=C(CN1CCN(c2ccccn2)CC1)N1CCCn2c1nc1ccccc1c2=O`, the GI50 in the assay with A549, with SR, in the assay with MDA-MB-231, in the assay on A498, with LOX IMVI and with HOP-62 was > 100 µM (inactive) each time. The GI50 with HCC 2998, with U-251, in the assay with SF-539, in the assay with HL-60, with Hs-578T and with PC-3 was > 100 µM (inactive) in each case. Also, the GI50 with MCF7, in the assay on UO-31, in the assay with K562, in the assay with UACC-62, in the assay with BT-549 and with MOLT-4 was > 100 µM (inactive) each time. The GI50 in the assay with SK-MEL-2 was > 100 µM (inactive).

`O=C1/C(=C\c2ccco2)Oc2ccccc21`: the GI50 was > 100 µM (inactive) in the assay with A549; 55.2 µM (inactive) in the assay with SR; > 100 µM (inactive) with MDA-MB-231; > 100 µM (inactive) in the assay with A498; > 100 µM (inactive) with LOX IMVI; > 100 µM (inactive) in the assay on HOP-62. The GI50 in the assay with HCC 2998 is > 100 µM (inactive); in the assay with U-251 it was > 100 µM (inactive); in the assay on HL-60, 39.4 µM (inactive); in the assay with Hs-578T it was > 100 µM (inactive); with PC-3, > 100 µM (inactive); in the assay with MCF7, 29.4 µM (inactive). Moreover, the GI50 with SK-MEL-28 is > 100 µM (inactive); in the assay with UO-31, 76.2 µM (inactive); in the assay on K562, > 100 µM (inactive); in the assay on UACC-62, > 100 µM (inactive); in the assay with BT-549 it was > 100 µM (inactive); with MOLT-4, 23.7 µM (inactive). The GI50 in the assay on SK-MEL-2 was > 100 µM (inactive).

In the case of `CCCCCCCCCCCCCCCC(=O)OC(COC(C)=O)CO[PH](=O)O` (stereo not drawn), the GI50 in the assay on A549 is 19.5 µM (inactive); in the assay on SR it was 24.9 µM (inactive); in the assay on MDA-MB-231, 21.7 µM (inactive); with A498, > 100 µM (inactive); with LOX IMVI, 23.2 µM (inactive); with HCC 2998 it was 21.4 µM (inactive). For the same molecule, the GI50 in the assay with U-251 was 21.6 µM (inactive); in the assay with SF-539, 20.8 µM (inactive); in the assay on HL-60, 31.9 µM (inactive); in the assay with Hs-578T, 11.8 µM (inactive); in the assay with PC-3, 30.5 µM (inactive); in the assay on MCF7 it was > 100 µM (inactive). Besides, the GI50 was 35.2 µM (inactive) in the assay with SK-MEL-28; 26.3 µM (inactive) with UO-31; > 100 µM (inactive) in the assay on K562; 37.3 µM (inactive) in the assay on UACC-62; > 100 µM (inactive) in the assay with BT-549; 31.3 µM (inactive) with MOLT-4. Further, the GI50 in the assay on SK-MEL-2 was 19.5 µM (inactive).

`CSc1nc(SC)c2c(C)cn(Cc3ccccc3)c2n1`: the GI50 in the assay on A549 is > 100 µM (inactive); in the assay with SR, 32.4 µM (inactive); with MDA-MB-231 it was > 100 µM (inactive); in the assay on A498 it was > 100 µM (inactive); in the assay with LOX IMVI, 60.4 µM (inactive); with HOP-62, > 100 µM (inactive). The GI50 in the assay on HCC 2998 is 44.1 µM (inactive); in the assay with U-251, > 100 µM (inactive); in the assay on SF-539, 93.1 µM (inactive); in the assay on HL-60, 34 µM (inactive); with Hs-578T, > 100 µM (inactive); in the assay on PC-3, > 100 µM (inactive). For the same molecule, the GI50 with MCF7 was 45.4 µM (inactive); in the assay on SK-MEL-28, > 100 µM (inactive); with UO-31 it was 56.8 µM (inactive); in the assay with UACC-62 it was > 100 µM (inactive); in the assay with BT-549, > 100 µM (inactive); in the assay with MOLT-4, 39 µM (inactive). In the assay with SK-MEL-2, the GI50 was > 100 µM (inactive).
